Experimental data: patent US20160280743A1, “BACTERIAL MUTANTS AND METHODS OF USE” (priority 2015, published 2016)
Values after ≈ are worked out from the molar mass of the structure shown. Where two headings read alike, the source gives them in different places.

How the values were obtained:
[1] = tested on: P. aeruginosa PAO1Δ3 (Δ3); details: P. aeruginosa Δ3 without pore; 0.1 mM IPTG; LB, 37° C., 16 h
Experimental: (§3) Susceptibilities of E. coli and P. aeruginosa cells to different classes of antibiotics were determined by two-fold broth dilution method [1] with following modifications. Cells were grown in Luria-Bertani (LB) broth (tryptone 10 g/L, yeast extract 5 g/L and NaCl 5 g/L) with appropriate selection markers as needed, at 37° C. with shaking at 200 rpm. When needed, at OD600˜0.3, either L-arabinose (final concentration 0.1%) or IPTG (final concentration 0.1 mM) were added to induce the expression of the pore and cells were further incubated until OD600 reached 1.0. MICs of various antimicrobial agents were measured in 96-well micro-titer plates. For this purpose, exponentially growing cells were inoculated at a density of 10^5 cells/ml into wells containing LB medium in the presence of two-fold increasing concentrations of drugs under investigation at constant inducer concentration of 0.1% arabinose for E. coli or 0.1 mM IPTG for P. aeruginosa strains. Cell growth was determined visually or using Spark 10M microplate reader (Tecan) after incubation of the micro-titer plates at 37° C. for 16 h.
(§4) For this purpose, induced cells were dispensed into 96-well microplates with LB medium containing two-fold dilutions of an antibiotic of interest and a respective concentration of an inducer.

[2] = tested on: P. aeruginosa PAO1, PAO1-Pore, Δ3, Δ3-Pore cells; experiment: Azithromycin uptake into P. aeruginosa cells by LC-MS; details: 5 μM; 0.1 mM IPTG; LC-MS (FIG. 5C)
Experimental: For LC-MS analyses, P. aeruginosa cells were grown to stationary phase in 50 mM MOPS (pH 7.2) M9 minimal medium supplemented with 1% glycerol and trace ions at 37° C. Stationary phase cells were subcultured 1:100 for 16 hours in the same fresh medium at 37° C. After 16 hours, cultures were induced with 0.1 mM IPTG for 4 hours at 37° C. Cells were collected by centrifugation at room temperature and resuspended in PMG buffer at one-tenth the original culture volume. […] At appropriate time points, 100 μl of cells were removed and collected onto filter plates using a HTS Vacuum Manifold (EMD Millipore). Filters were dried overnight and extracted in a two-step process using 1) 800 μl of 100% HPLC grade methanol and 2) 200 μl of 80% HPLC methanol: 20% ultrapure water. […] For HPLC, two mobile phases (A—100% water, B—100% acetonitrile; both with 0.1% formic acid) were used with a step gradient of 20, 50 and 100% of B for 1, 4, and 11 min, respectively.

[3] = tested on: E. coli ΔTolC-Pore (GKCW103, FhuAΔC/Δ4L pore); details: 0.1% arabinose, LB, 37° C., 16 h
Experimental: as §3, §4

[4] = tested on: P. aeruginosa PAO1, PAO1-Pore, Δ3, Δ3-Pore; experiment: Fold MIC change between P. aeruginosa strains (OM barrier, efflux); assay type: cell-based, Pseudomonas aeruginosa; details: for Fold MIC change, Efflux, PAO1-Pore/Δ3-Pore / Fold MIC change, Efflux, PAO1/Δ3 / Fold MIC change, OM barrier, PAO1/PAO1-Pore / Fold MIC change, OM barrier, Δ3/Δ3-Pore: P. aeruginosa
[5] = tested on: P. aeruginosa Δ3-Pore (GKCW116, FhuAΔC/Δ4L pore); experiment: MIC, two-fold broth dilution, P. aeruginosa Δ3-Pore; details: for MIC Δ3 Pore: P. aeruginosa Δ3-Pore, 0.1 mM IPTG, LB, 37° C., 16 h
Experimental: as §3, §4

[6] = tested on: P. aeruginosa PAO1; experiment: microbe, parasite or virus in culture; details: Pseudomonas aeruginosa
Experimental: as §3, §4

[7] = tested on: E. coli GD102 (ΔTolC); details: E. coli ΔTolC without pore; 0.1% arabinose; LB, 37° C., 16 h
Experimental: as §3, §4

[8] = tested on: E. coli WT-Pore (GKCW101, FhuAΔC/Δ4L pore); experiment: microbe, parasite or virus in culture; details: Escherichia coli, 16 h, read-out: MIC BW 25113 (WT) Pore
Experimental: as §3, §4

[9] = tested on: E. coli WT, WT-Pore, ΔTolC, ΔTolC-Pore; assay type: cell-based, Escherichia coli; details: E. coli
[10] = tested on: E. coli BW 25113 (WT); experiment: microbe, parasite or virus in culture; details: Escherichia coli, 16 h, read-out: MIC BW 25113 (WT) —
Experimental: as §3, §4

[11] = tested on: P. aeruginosa PAO1; experiment: Vancomycin disc susceptibility assay, P. aeruginosa PAO1; assay type: cell-based; details: Pseudomonas aeruginosa, 200 μg vancomycin disc, read-out: Zone of clearance
Experimental: (§1) Vancomycin susceptibility spot assay. […] […] Seeded plates were incubated overnight at 37° C. Large clearance zones can be clearly seen in the presence of inducers.

[12] = tested on: E. coli WT; experiment: Vancomycin disc susceptibility assay, E. coli WT; assay type: cell-based; details: Escherichia coli, 100 μg vancomycin disc, read-out: Zone of clearance
Experimental: (§2) Vancomycin susceptibility spot assay. Indicated E. coli (A) and P. aeruginosa (B) strains were seeded onto LB agar plates, ˜10^8 cells per plate, with and without inducers 0.1% arabinose and 0.1 mM IPTG, respectively. […] Seeded plates were incubated overnight at 37° C. Large clearance zones can be clearly seen in the presence of inducers.

[13] = tested on: E. coli WT-Pore; experiment: Vancomycin disc susceptibility assay, E. coli WT-Pore; assay type: cell-based; details: Escherichia coli, read-out: Zone of clearance, E. coli WT-Pore, 100 μg vancomycin disc
Experimental: as §2

[14] = tested on: E. coli ΔTolC-Pore; experiment: Vancomycin disc susceptibility assay, E. coli ΔTolC-Pore; assay type: cell-based; details: Escherichia coli, read-out: Zone of clearance, E. coli ΔTolC-Pore, 100 μg vancomycin disc
Experimental: as §1

[15] = tested on: P. aeruginosa PAO1-Pore; experiment: Vancomycin disc susceptibility assay, P. aeruginosa PAO1-Pore; assay type: cell-based; details: Pseudomonas aeruginosa, 200 μg vancomycin disc, read-out: Zone of clearance
Experimental: as §2

[16] = tested on: E. coli ΔTolC; experiment: Vancomycin disc susceptibility assay, E. coli ΔTolC; assay type: cell-based; details: Escherichia coli, read-out: Zone of clearance, E. coli ΔTolC, 100 μg vancomycin disc
Experimental: as §2

[17] = tested on: P. aeruginosa Δ3-Pore; experiment: Vancomycin disc susceptibility assay, P. aeruginosa Δ3-Pore; assay type: cell-based; details: Pseudomonas aeruginosa, 200 μg vancomycin disc, read-out: Zone of clearance
Experimental: as §2

[18] = tested on: P. aeruginosa Δ3; experiment: Vancomycin disc susceptibility assay, P. aeruginosa Δ3; assay type: cell-based; details: Pseudomonas aeruginosa, 200 μg vancomycin disc, read-out: Zone of clearance
Experimental: as §2

[19] = PAO1, 16 h, read-out: MIC PAO1 —

With CC[C@H]1OC(=O)[C@H](C)[C@@H](O[C@H]2C[C@@](C)(OC)[C@@H](O)[C@H](C)O2)[C@H](C)[C@@H](O[C@@H]2O[C@H](C)C[C@H](N(C)C)[C@H]2O)[C@](C)(O)C[C@@H](C)CN(C)[C@H](C)[C@@H](O)[C@]1(C)O [Azithromycin] the “MIC Δ3 —” value [1] was 4 µg/mL (≈ 5.34 µM), the “Accumulation of azithromycin in permeabilized PAO1-Pore and Δ3-Pore cells” value [2] was “significantly higher than PAO1 and Δ3 cells” and the “MIC GD102 (ΔTolC) Pore” value [3] was 0.031 µg/mL (≈ 0.0414 µM). The “Decrease of MIC from PAO1 cells to induced Δ3-Pore cells” value ([4]; FIG. 5B) was “more than 2000 fold”, the “Drop in MIC in PAO1-Pore cells with increasing inducer” value ([4]; IPTG (FIG. 5)) was 32 fold and the “Drop in MIC in Δ3-Pore cells with increasing inducer” value ([4]; IPTG (FIG. 5)) was 64 fold. For the same compound, the “Fold MIC change, Efflux, PAO1-Pore/Δ3-Pore” value [4] was 64 fold, the “Fold MIC change, Efflux, PAO1/Δ3” value [4] was 32 fold and the “Fold MIC change, OM barrier, PAO1/PAO1-Pore” value [4] was 32 fold. The “Fold MIC change, OM barrier, Δ3/Δ3-Pore” value [4] was 64 fold, the “MIC Δ3 Pore” value [5] was 0.063 µg/mL (≈ 0.0841 µM) and the “MIC in P. aeruginosa Δ3-Pore cells” value ([5]; induced, plateau with increasing IPTG (FIG. 5)) was 0.083 µM (≈ 0.0622 µg/mL). For the same compound, the MIC [6, 19] was 128 µg/mL, the MIC ([6]; PAO1, read-out: MIC in P. aeruginosa PAO1 cells) was 171 µM and the “MIC GD102 (ΔTolC) —” value [7] was 0.5 µg/mL (≈ 0.668 µM). The MIC [8] was 0.5 µg/mL (≈ 0.668 µM), the “Fold MIC change, Efflux, WT-Pore/ΔTolC-Pore” value [9] was 16 fold and the “Fold MIC change, Efflux, WT/ΔTolC” value [9] was 4 fold. For the same compound, the “Fold MIC change, OM barrier, WT/WT-Pore” value [9] was 4 fold, the “Fold MIC change, OM barrier, ΔTolC/ΔTolC-Pore” value [9] was 16 fold and the MIC [10] was 2 µg/mL (≈ 2.67 µM).
With CN[C@H](CC(C)C)C(=O)N[C@H]1C(=O)N[C@@H](CC(N)=O)C(=O)N[C@H]2C(=O)N[C@H]3C(=O)N[C@H](C(=O)N[C@H](C(=O)O)c4cc(O)cc(O)c4-c4cc3ccc4O)[C@H](O)c3ccc(c(Cl)c3)Oc3cc2cc(c3O[C@@H]2O[C@H](CO)[C@@H](O)[C@H](O)[C@H]2O[C@H]2C[C@](C)(N)[C@H](O)[C@H](C)O2)Oc2ccc(cc2Cl)[C@H]1O [Vancomycin] the “MIC Δ3 —” value [1] was 1024 µg/mL (≈ 707 µM), the zone of inhibition at 200 µg/disc ([11]; Arabinose (0.1%)) was 12 mm and the zone of inhibition at 200 µg/disc ([11]; IPTG (0.1 mM)) was 10 mm. The zone of inhibition at 200 µg/disc ([11]; No inducer) was 11 mm, the zone of inhibition at 100 µg/disc ([12]; Arabinose (0.1%)) was 6 mm and the zone of inhibition at 100 µg/disc ([12]; IPTG (0.1 mM)) was 6 mm. The zone of inhibition at 100 µg/disc ([12]; No inducer) was 5 mm, the zone of inhibition at 100 µg/disc ([13]; Arabinose (0.1%)) was 16 mm and the zone of inhibition at 100 µg/disc ([13]; IPTG (0.1 mM)) was 11 mm. For the same compound, the zone of inhibition at 100 µg/disc ([13]; No inducer) was 8 mm, the “MIC GD102 (ΔTolC) Pore” value [3] was 4 µg/mL (≈ 2.76 µM) and the zone of inhibition at 100 µg/disc ([14]; Arabinose (0.1%)) was 15 mm. For the same compound, the zone of inhibition at 100 µg/disc ([14]; IPTG (0.1 mM)) was 16 mm, the zone of inhibition at 100 µg/disc ([14]; No inducer) was 7 mm and the “Fold MIC change, Efflux, PAO1-Pore/Δ3-Pore” value [4] was 2 fold. For the same compound, the “Fold MIC change, Efflux, PAO1/Δ3” value [4] was 2 fold, the “Fold MIC change, OM barrier, PAO1/PAO1-Pore” value [4] was 16 fold and the “Fold MIC change, OM barrier, Δ3/Δ3-Pore” value [4] was 16 fold. The “MIC Δ3 Pore” value [5] was 64 µg/mL (≈ 44.2 µM), the MIC [6, 19] was 2050 µg/mL and the zone of inhibition at 200 µg/disc ([15]; Arabinose (0.1%)) was 21 mm. It also gave a zone of inhibition at 200 µg/disc ([15]; IPTG (0.1 mM)) of 19 mm, a zone of inhibition at 100 µg/disc ([16]; Arabinose (0.1%)) of 6 mm and a zone of inhibition at 100 µg/disc ([16]; IPTG (0.1 mM)) of 5 mm. It also gave a zone of inhibition at 100 µg/disc ([16]; No inducer) of 5 mm, a zone of inhibition at 200 µg/disc ([17]; Arabinose (0.1%)) of 22 mm and a zone of inhibition at 200 µg/disc ([17]; IPTG (0.1 mM)) of 18 mm. For the same compound, the zone of inhibition at 200 µg/disc ([17]; No inducer) was 12 mm, the “MIC GD102 (ΔTolC) —” value [7] was 256 µg/mL (≈ 177 µM) and the MIC [8] was 8 µg/mL (≈ 5.52 µM). It also gave a zone of inhibition at 200 µg/disc ([18]; Arabinose (0.1%)) of 12 mm, a zone of inhibition at 200 µg/disc ([18]; IPTG (0.1 mM)) of 9 mm and a zone of inhibition at 200 µg/disc ([18]; No inducer) of 10 mm. For the same compound, the “Fold MIC change, Efflux, WT-Pore/ΔTolC-Pore” value [9] was 2 fold, the “Fold MIC change, Efflux, WT/ΔTolC” value [9] was 0.5 fold and the “Fold MIC change, OM barrier, WT/WT-Pore” value [9] was 16 fold. The “Fold MIC change, OM barrier, ΔTolC/ΔTolC-Pore” value [9] was 64 fold and the MIC [10] was 128 µg/mL (≈ 88.3 µM).
